Assay [1] has as its system genotype A, "Long" strain RSV. The assay is described as follows: RSV-A assay (CPE, ATPlite readout in Hep-2 cells). The note with it: human respiratory syncytial virus, HEp-2, Hep-2 cells, genotype A "Long" strain RSV, MOI 0.1; read-out: Human RSV-A (“Long” strain) EC50. It counts as cell-based. In outline:
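Protection from RSV-induced cytopathic effect, measured as ATPlite luminescence after 5 days, gave EC50 values. Assay used genotype A Long strain at MOI 0.1 on Hep-2 cells seeded at 8,000/well in DMEM growth media with 10% FBS; compounds tested as 2-fold dilutions in duplicate.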
For orientation: In ATP-based viability assays light output follows the ATP content of the culture.

Assay [2] has as its system recombinant HMPV CAN97-83 (MPV-GFP1). The assay is described as follows: HMPV antiviral assay (MPV-GFP1 eGFP fluorescence in Vero E6 cells). Particulars: human metapneumovirus, Vero C1008, 120 h, read-out: HMPV EC50. It counts as cell-based. In outline: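 Vero E6 cells in serum-free OptiMEM with 0.5 μg/mL TPCK-trypsin infected with eGFP-expressing HMPV CAN97-83 (MPV-GFP1) at MOI 0.05. 8-point […] ½-step dilutions from 8 or 2 μM, 0.5% DMSO, 5 days at 32 °C. eGFP fluorescence normalized to infected untreated wells; EC50 from four-parameter logistic fit.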

In assay [3] the test system is HRSV. The note with it: prophylactic use, high risk infants; cited from earlier work.

What is called EC50 is the concentration that produces a half-maximal response. As for `Cc1cnc2c(NC(=O)C3(F)CC3)cc(C(=O)NC[C@](O)(c3cc4c(c(-c5ccc(F)cc5)n3)OC[C@]4(C)C(N)=O)C(F)(F)F)cc2c1` [Example 553], the half-maximal effective concentration (EC50) is below 0.2 µM in assay [1] and below 0.5 µM in assay [2]. In the case of `COc1cc(C(=O)NC[C@](O)(c2cc3c(c(-c4ccc(F)cc4)n2)OC[C@]3(C)C(N)=O)C(F)(F)F)cc2cc(C(F)(F)F)cnc12` [Example 557], the figures for the EC50 in assay [1] and in assay [2] were below 0.2 µM and below 0.5 µM, respectively. As for `COc1cc(C(=O)NC[C@](O)(c2cc3c(c(-c4ccc(F)c(Cl)c4)n2)OC[C@]3(C)C(N)=O)C(F)(F)F)cc2cc(C(F)(F)F)cnc12` [Example 558], the concentration for a half-maximal effect (EC50) in assay [1] was below 0.2 µM; in assay [2] it was below 0.5 µM. The corresponding values for `Cc1cnc2c(Nc3cccnn3)cc(C(=O)NC[C@](O)(c3cc4c(c(-c5ccc(F)cc5)n3)OC[C@]4(C)C(N)=O)C(F)(F)F)cc2c1` [Example 560] are below 0.2 µM and below 0.5 µM. In the case of `Cc1cnc2c(NC(=O)c3ncco3)cc(C(=O)NC[C@](O)(c3cc4c(c(-c5ccc(F)cc5)n3)OC[C@]4(C)C(N)=O)C(F)(F)F)cc2c1` [Example 561], the EC50 in assay [1] is below 0.2 µM; in assay [2] it was below 0.5 µM. On to `COc1cc(C(=O)NC[C@](O)(c2cc3c(c(-c4ccc(F)cc4)n2)OC[C@]3(C)C(N)=O)C(F)(F)F)cc2sc(C)nc12` [Example 562], for which the EC50 was below 0.2 µM in assay [1] and below 0.5 µM in assay [2]. In the case of `C[C@]1(C(N)=O)COc2c1cc([C@@](O)(CNC(=O)c1ccc3[nH]ncc3c1)C(F)(F)F)nc2-c1ccc(F)cc1` [Example 588], the EC50 was below 0.2 µM in assay [1] and above 0.5 µM in assay [2]. `COc1cccc2[nH]c(C(=O)NC[C@](O)(c3cc4c(c(-c5ccc(F)cc5)n3)OC[C@]4(C)C(N)=O)C(F)(F)F)cc12` [Example 595]: the figures for the half-maximal effective concentration (EC50) in assay [1] and in assay [2] were below 0.2 µM and below 0.5 µM, respectively.

On to `Cc1nc2cc(C(=O)NC[C@](O)(c3cc4c(c(-c5ccc(F)cc5)n3)OC[C@]4(C)C(N)=O)C(F)(F)F)ccc2[nH]1` [Example 600], for which the 50% effective concentration (EC50) in assay [1] was below 0.2 µM; in assay [2], above 0.5 µM.

As for `Cc1cnc2c(Nc3ncncn3)cc(C(=O)NC[C@](O)(c3cc4c(c(-c5ccc(F)cc5)n3)OC[C@]4(C)C(N)=O)C(F)(F)F)cc2c1` [Example 611], the EC50 in assay [1] is below 0.2 µM; in assay [2], above 0.5 µM. With `Cc1cnc2c(Nc3nccnn3)cc(C(=O)NC[C@](O)(c3cc4c(c(-c5ccc(F)cc5)n3)OC[C@]4(C)C(N)=O)C(F)(F)F)cc2c1` [Example 613], the concentration giving a half-maximal response (EC50) was below 0.2 µM in assay [1] and below 0.5 µM in assay [2].

Take `Cc1cnc2c(Oc3ncccn3)cc(C(=O)NC[C@](O)(c3cc4c(c(-c5ccc(F)cc5)n3)OC[C@]4(C)C(N)=O)C(F)(F)F)cc2c1` [Example 615]: the EC50 in assay [1] was below 0.2 µM; in assay [2] it was above 0.5 µM. The like results for `Cc1cc2cc(C(=O)NC[C@](O)(c3cc4c(c(-c5ccc(F)cc5)n3)OC[C@]4(C)C(N)=O)C(F)(F)F)ccc2nn1` [Example 616] were, in that order, below 0.2 µM and below 0.5 µM. With `Cc1cc2cc(C(=O)NC[C@](O)(c3cc4c(c(-c5ccc(F)c(Cl)c5)n3)OC[C@]4(C)C(N)=O)C(F)(F)F)ccc2nn1` [Example 617], the values for the EC50 in assay [1] and in assay [2] were below 0.2 µM and below 0.5 µM, respectively. With `Cc1cnc2c(NC(=O)c3ccon3)cc(C(=O)NC[C@](O)(c3cc4c(c(-c5ccc(F)cc5)n3)OC[C@]4(C)C(N)=O)C(F)(F)F)cc2c1` [Example 621], the results for the half-maximal effective concentration (EC50) in assay [1] and in assay [2] were below 0.2 µM and above 0.5 µM, respectively. With `Cc1cnc2c(NC(=O)NCC(C)(C)F)cc(C(=O)NC[C@](O)(c3cc4c(c(-c5ccc(F)cc5)n3)OC[C@]4(C)C(N)=O)C(F)(F)F)cc2c1` [Example 622], the 50% effective concentration (EC50) in assay [1] is below 0.2 µM; in assay [2], below 0.5 µM.

Take `Cc1cnc2c(NC(=O)c3nc(C)co3)cc(C(=O)NC[C@](O)(c3cc4c(c(-c5ccc(F)cc5)n3)OC[C@]4(C)C(N)=O)C(F)(F)F)cc2c1` [Example 623]: the 50% effective concentration (EC50) in assay [1] is below 0.2 µM; in assay [2], above 0.5 µM. For `Cc1cnc2c(NC(=O)c3cnc(C)o3)cc(C(=O)NC[C@](O)(c3cc4c(c(-c5ccc(F)cc5)n3)OC[C@]4(C)C(N)=O)C(F)(F)F)cc2c1` [Example 624], the EC50 in assay [1] is below 0.2 µM; in assay [2], below 0.5 µM. Regarding `Cc1ccc2cc(C(=O)NC[C@](O)(c3cc4c(c(-c5ccc(F)cc5)n3)OC[C@]4(C)C(N)=O)C(F)(F)F)cc(NC(=O)C3CC3)c2n1` [Example 626], the results for the concentration giving a half-maximal response (EC50) in assay [1] and in assay [2] were below 0.2 µM and above 0.5 µM, respectively. As for `Cc1ccc2cc(C(=O)NC[C@](O)(c3cc4c(c(-c5ccc(F)cc5)n3)OC[C@]4(C)C(N)=O)C(F)(F)F)cc(NC(=O)C3(F)CC3)c2n1` [Example 627], the EC50 in assay [1] was below 0.2 µM; in assay [2], above 0.5 µM. `C[C@]1(C(N)=O)COc2c1cc([C@@](O)(CNC(=O)c1cc(Cl)c3nc(N)sc3c1)C(F)(F)F)nc2-c1ccc(F)cc1` [Example 633]: the concentration giving a half-maximal response (EC50) in assay [1] is below 0.2 µM; in assay [2], below 0.5 µM. In the case of `COc1cc(C(=O)NC[C@](O)(c2cc3c(c(-c4ccc(F)cc4)n2)OC[C@]3(C)C(=O)NCC(C)(C)O)C(F)(F)F)cc2cn(C)nc12` [Example 635], the results for the EC50 in assay [1] and in assay [2] were below 0.2 µM and below 0.5 µM, respectively. `Cn1cc2cc(C(=O)NC[C@](O)(c3cc4c(c(-c5ccc(F)c(Cl)c5)n3)OC[C@]4(C)C(N)=O)C3CC3)ccc2n1` [Example 638]: the EC50 in assay [1] is below 0.2 µM; in assay [2], below 0.5 µM. The like results for `Cn1cc2cc(C(=O)NC[C@](O)(c3cc4c(c(-c5ccc(F)cc5)n3)OC[C@]4(C)C(=O)NCC(C)(C)O)C(F)(F)F)ccc2n1` [Example 640] were, in that order, below 0.2 µM and above 0.5 µM. As to `Cc1ccc(-c2nc([C@@](O)(CNC(=O)c3ccc4nn(C)cc4c3)C(F)(F)F)cc3c2OC[C@]3(C)C(N)=O)cc1` [Example 641], the concentration giving a half-maximal response (EC50) is below 0.2 µM in assay [1] and above 0.5 µM in assay [2]. The corresponding values for `Cn1cc2cc(C(=O)NC[C@](O)(c3cc4c(c(-c5ccc(F)cc5)n3)OC[C@]4(C)C(=O)NCC(C)(C)O)C3CC3)ccc2n1` [Example 642] are below 0.2 µM and above 0.5 µM.

Turning to `COc1cc(C(=O)NC[C@](O)(c2cc3c(c(-c4ccc(F)cc4)n2)OCC3(F)C(N)=O)C(F)(F)F)cc2cc(Cl)c(C)nc12` (stereo partly shown) [Example 668], the 50% effective concentration (EC50) in assay [1] was below 0.2 µM; in assay [2] it was below 0.5 µM. The like results for `COc1cc(C(=O)NC[C@](O)(c2cc3c(c(-c4ccc(F)cc4)n2)OCC3(F)C(N)=O)C(F)(F)F)cc2cccnc12` (stereo partly shown) [Example 669] were, in that order, below 0.2 µM and above 0.5 µM. Consider `COc1cc(C(=O)NC[C@](O)(c2cc3c(c(-c4ccc(F)cc4)n2)OCC3(F)C(N)=O)C(F)(F)F)cc2cn(C(F)F)nc12` (stereo partly shown) [Example 670], for which the concentration for a half-maximal effect (EC50) was below 0.2 µM in assay [1] and below 0.5 µM in assay [2]. On to `COc1cc(C(=O)NC[C@](O)(c2cc3c(c(-c4ccc(F)cc4)n2)OCC3(F)C(N)=O)C(F)(F)F)cc2cn(C3CC3)nc12` (stereo partly shown) [Example 676], for which the EC50 in assay [1] is below 0.2 µM; in assay [2], below 0.5 µM. Palivizumab: the “effective in reducing hospitalizations” value in assay [3] was 60%.
